In EPA's ToxRefDB 2:

Experiments:
[1] = system: rat; conditions: Combined chronic toxicity/carcinogenicity, fischer, Oral, Feed, dose end: 2 year, group: systemic
[2] = system: mouse; conditions: Carcinogenicity, cd1, Oral, Feed, dose end: 18 month, group: systemic
[3] = system: rabbit; conditions: Prenatal developmental toxicity study; new zealand white; Oral; Gavage/Intubation; dose end: 19 GD; group: maternal; reproductive / reproductive performance / postimplantation loss / postimplantation loss + reproductive / reproductive performance / …
[4] = system: dog; conditions: Chronic toxicity, beagle, Oral, Feed, dose end: 12 month
[5] = system: dog; conditions: Subchronic oral toxicity in nonrodent, beagle, Feed, dose end: 90 day, group: systemic
[6] = system: rat; conditions: Multigenerational reproductive toxicity study, sprague dawley, Oral, Feed, dose end: 2 generation
[7] = systemic / pathology gross / stomach / discolored + systemic / pathology gross / stomach / foci + systemic / pathology gross / stomach / …
[8] = systemic / organ weight / liver / nos + systemic / pathology microscopic / liver / eosinophilic focus + systemic / pathology microscopic / …
[9] = group: reproductive, reproductive / reproductive performance / estrous cycle / periodicity
[10] = group: systemic, systemic / in life observation / body weight / body weight + systemic / in life observation / body weight / body weight gain + systemic / in…
[11] = group: systemic, systemic / pathology microscopic / uterus / estrus
[12] = systemic / in life observation / body weight / body weight gain
[13] = systemic / in life observation / body weight / body weight gain + systemic / in life observation / food consumption / food consumption
[14] = group: offspring, systemic / in life observation / body weight / offspring (pup) weight
[15] = group: offspring, systemic / in life observation / body weight / offspring (pup) weight + developmental / offspring survival late / lactation index / …
[16] = group: parental, systemic / in life observation / food consumption / food consumption + systemic / in life observation / body weight / body weight + systemic…
[17] = group: reproductive, reproductive / offspring survival early / birth index / live birth index

Question: Which results are given for `CC(C)N(C(=O)CCl)c1ccccc1` [Propachlor]?
Answer: LEL ([1]; systemic / clinical chemistry / aspartate aminotransferase (ast/sgot) / aspartate aminotransferase (ast/sgot)): 16.1 mg/kg/day; LOAEL [1, 7]: 125 mg/kg/day; NEL [1, 7]: 5.4 mg/kg/day; NOAEL [1, 7]: 53.6 mg/kg/day; LEL ([2]; systemic / organ weight / liver / nos): 75 mg/kg/day; NEL ([2]; systemic / organ weight / liver / nos + systemic / organ weight / kidney / nos + systemic / pathology microscopic / liver / hypertrophy): 14.6 mg/kg/day; LOAEL [2, 8]: 223 mg/kg/day; NOAEL [2, 8]: 75 mg/kg/day; LEL [3]: 50 mg/kg/day; LOAEL [3]: 50 mg/kg/day; NEL [3]: 5 mg/kg/day; NOAEL [3]: 5 mg/kg/day; LEL [4, 9]: 0.625 mg/kg/day; LOAEL [4, 9]: > 25 mg/kg/day; NEL [4, 9]: < 0.625 mg/kg/day; NOAEL [4, 9]: ≥ 25 mg/kg/day; LOAEL [4, 10]: 25 mg/kg/day; NOAEL [4, 10]: 6.25 mg/kg/day; LEL [4, 11]: 0.625 mg/kg/day; NEL [4, 11]: < 0.625 mg/kg/day; LEL [5, 12]: 2.5 mg/kg/day; NEL [5, 12]: < 2.5 mg/kg/day; LOAEL [5, 13]: > 37.5 mg/kg/day; NOAEL [5, 13]: ≥ 37.5 mg/kg/day; LEL [6, 14]: 69.6 mg/kg/day; LOAEL [6, 14]: 69.6 mg/kg/day; NEL [6, 15]: 7.1 mg/kg/day; NOAEL [6, 15]: 7.1 mg/kg/day; LEL [6, 16]: 69.6 mg/kg/day; LOAEL [6, 16]: 69.6 mg/kg/day; NEL [6, 16]: 7.1 mg/kg/day; NOAEL [6, 16]: 7.1 mg/kg/day; LEL [6, 17]: 141 mg/kg/day; LOAEL [6, 17]: > 141 mg/kg/day; NOAEL [6, 17]: ≥ 141 mg/kg/day
